Reference: patent publication EP0596284A2, “Antimycotic cosmetic and dermatological compositions containing fatty acid esters” (Beiersdorf Aktiengesellschaft, priority 1992, dated 1994)
Where two headings read alike, the source gives them in different places.

Tested on: Pityrosporum ovale
Assay: Agar diffusion test, inhibition zones around wells on selective agar plates
Format: cell-based
Settings: for zone of inhibition at 0.5 % / zone of inhibition at 1 % / zone of inhibition at 5 % / zone of inhibition at 10 %: Malassezia furfur, 72 h, read-out: mittlerer Hemmhof-Durchmesser
Protocol: Testlösungen: • TY-Medium 10 g Trypton + 5 g Hefeextrakt + 10 g NaCI, aufgelöst in 1000 ml H20, gepuffert auf pH 7,4 , autoklaviert. • Testverbindung 1: Hexyllaurat • Testverbindung 2: Isopropylstearat • Testverbindung 3: Caprylsäure-/Caprinsäure-Triglycerid • Testverbindung 4: Glyceryllaurat
Pityrosporum ovale von drei Patienten mit Pityrosporum-Follikulitis, Pityriasis versicolor oder seborrhoischem Ekzem wurde in einer Mischung aus 50 % TY-Medium, 30 % Olivenöl und 20 % Tween 80 suspendiert. Die drei verschiedenen Hefestämme wurden in drei parallelen Ansätzen auf einer Selektivagarplatte für pathogene Pilze (Merck AG, Darmstadt) gleichmäßig ausgespatelt. Mit Hilfe steriler Korkbohrer wurden in jede Platte mehrere kreisrunde Vertiefungen gestanzt, in die Vertiefungen mit einem Durchmesser von 5 mm wurden jeweils 25 ul der Testlösungen gegeben. Die Testlösungen stellten 0,5 %-ige, 1,0 %- ige, 2,5 %-ige, 5,0 %-ige und 10,0 %-ige Lösungen der Testsubstanzen in Ethanol dar.
Nach dreistündiger Inkubation bei 37 C wurde das verdunstete Lösungsmittel durch je 25 ul Jojobaöl ersetzt und die Platten anschließend unter Beibehaltung der Wachstumsbedingungen drei Tage inkubiert. Während dieser Zeit diffundierten die Testsubstanzen in den die Vertiefungen umgebenden Nährboden.
Antimycotisch wirksame Testverbindungen zeigten nach dreitägiger Inkubation einen deutlichen konzentrischen Hemmhof um die Vertiefungen. Die Größe dieser Hemmhöfe, wiedergegeben in Tabelle 1, ist bei vergleichbarer Substanzkonzentration ein Maß für die antimycotische Wirksamkeit der Testverbindungen.

[1] = Konz. 0,5 % in Ethanol, 25 ul per 5 mm well, three patient strains, three days at 37 C
[2] = Konz. 1,0 % in Ethanol, 25 ul per 5 mm well, three patient strains, three days at 37 C
[3] = Konz. 5,0 % in Ethanol, 25 ul per 5 mm well, three patient strains, three days at 37 C
[4] = Konz. 10,0 % in Ethanol, 25 ul per 5 mm well, three patient strains, three days at 37 C

Row | Compound | zone of inhibition at 0.5 % [1] [mm] | zone of inhibition at 1 % [2] [mm] | zone of inhibition at 5 % [3] [mm] | zone of inhibition at 10 % [4] [mm] | also measured
1 | CCCCCCCCCCCC(=O)OCC(O)CO (stereo not shown) [Testlösung 4, Glyceryllaurat] |  |  |  |  | zone of inhibition at 0.5 %: 11 mm; zone of inhibition at 1 %: 14 mm; zone of inhibition at 5 %: 16.5 mm; zone of inhibition at 10 %: 16.5 mm
2 | Caprylsäure-/Caprinsäure-Triglycerid [Testlösung 3] |  |  |  |  | mittlerer Hemmhof-Durchmesser [1]: 9,0 mm; mittlerer Hemmhof-Durchmesser [2]: 9,0 mm; mittlerer Hemmhof-Durchmesser [3]: 15,0 mm; mittlerer Hemmhof-Durchmesser [4]: 17,3 mm
3 | CCCCCCCCCCCC(=O)OCCCCCC [Testlösung 1, Hexyllaurat] | 14 | 15.5 | 18 | 20.7 | 
4 | CCCCCCCCCCCCCCCCCC(=O)OC(C)C [Testlösung 2, Isopropylstearat] | 10.7 | 14 | 18.7 | 20.7 | 
